Eleven compounds from patent US4675390A, “2-deoxypentose derivatives” (Eli Lilly and Company, priority 1984, dated 1987) can be followed below.

The subject of series [1] is CCRF-CEM cell line. The series is described as follows: growth inhibition of human leukemic cells. The class given is cell-based. To be noted: read-out: IC50 (concentration giving 50% growth inhibition).
In series [2] the test system is spontaneously hypertensive rats (SHR). The series is described as follows: blood pressure lowering in spontaneously hypertensive rats (tailcuff method). To be noted: 5 mg/kg subcutaneous, 3-5 hours. The class given is in vivo. The text has this:
Certain of the compounds of this invention are also active in lowering the blood pressure of spontaneously hypertensive rats (SHR). For example, β-methyl 2-deoxy-3-phosphocholyl-5-n-hexadecyl-D-ribofuranoside, when administered subcutaneously to SHR at various dose levels, produced the hypotensive effects set forth in Table III below.
*measured by tailcuff method

For series [3], the system named is X-5563, a plasma cell myeloma. The series is described as follows: antitumor activity against transplanted X-5563 plasma cell myeloma in mice. The class given is in vivo. The settings on record: daily for 10 days with 3 day delay. The text has this:
Compounds according to formula II above are also active against transplanted tumors in mice. Table II which follows gives the results of testing α-methyl 2-deoxy-3-phosphocholyl-5-n-hexadecyl-D-ribofuranoside against X-5563, a plasma cell myeloma. In the table, column 1 gives the dosage levels, column 2 toxic deaths, column 3, the percent tumor growth inhibition and column 4, the dosage schedule or regimen. Ten mice were given each dosage ip and a group of 20 mice used as controls.

≈ marks a conversion by molar mass, not a printed value.

`CCCCCCCCCCCCCCCCOC[C@H]1OCC[C@H]1OP(=O)([O-])OCC[N+](C)(C)C` [drawing 21 (R = H, R^1 = H), 1,2-dideoxy-3-phosphocholyl-5-n-hexadecyl-D-xylofuranose]: the IC50 in series [1] was 6.2 µg/mL (≈ 12.2 µM).

Turning to `CCCCCCCCCCCCCCCCO[C@H]1CC(=O)O[C@@H]1COP(=O)([O-])OCC[N+](C)(C)C` [drawing 20 (R, R^1 = Carbonyl), 2-deoxy-3-n-hexadecyl-5-phosphocholyl-D-ribofuran-1-one], in series [1], the IC50 amounted to 6.2 µg/mL (≈ 11.9 µM).

As to `CCCCCCCCCCCCCCCCO[C@H]1CC(O)O[C@@H]1COP(=O)([O-])OCC[N+](C)(C)C` (stereo partly drawn) [drawing 20 (R = H(OH), R^1 = OH(H)), 2-Deoxy-3-n-hexadecyl-5-phosphocholyl-D-ribose], the IC50 in series [1] was found to be 13.2 µg/mL (≈ 25.2 µM).

As for `CCCCCCCCCCCCCCCCOC[C@H]1OC(O)C[C@@H]1OP(=O)([O-])OCC[N+](C)(C)C` (stereo partly drawn) [drawing 19 (R = H(OH), R^1 = OH(H)), 2-deoxy-3-phosphocholyl-5-n-hexadecyl-D-ribose], the IC50 in series [1] was 6.4 µg/mL (≈ 12.2 µM).

Turning to `CCCCCCCCCCCCCCCCOC[C@H]1O[C@@H](OC)C[C@@H]1OP(=O)([O-])OCC[N+](C)(C)C` [drawing 19 (R = H, R^1 = MeO), β-methyl 2-deoxy-3-phosphocholyl-5-n-hexadecyl-D-ribofuranoside], the “Heart Rate” value in series [2] is “No effect”. This compound also displayed a Blood pressure effect in series [2] (tailcuff method) of -20 mmHg. Also, the IC50 in series [1] turned out to be 6.2 µg/mL (≈ 11.5 µM).

Turning to `CCCCCCCCCCCCCCCCO[C@H]1CCO[C@@H]1COP(=O)([O-])OCC[N+](C)(C)C` [drawing 20 (R = H, R^1 = H), 1,2-Dideoxy-3-n-hexadecyl-5-phosphocholyl-D-ribofuranose], in series [1], the IC50 is 3.4 µg/mL (≈ 6.7 µM).

Consider `CCCCCCCCCCCCCCCCO[C@H]1C[C@H](OC)O[C@@H]1COP(=O)([O-])OCC[N+](C)(C)C` [drawing 20 (R = H, R^1 = MeO), β-Methyl 2-deoxy-3-n-hexadecyl-5-phosphocholyl-D-ribofuranoside], for which the IC50 in series [1] was less than 2.1 µg/mL.

For the compound `CCCCCCCCCCCCCCCCOC[C@H]1O[C@H](OC)C[C@@H]1OP(=O)([O-])OCC[N+](C)(C)C` [drawing 19 (R = MeO, R^1 = H), α-methyl 2-deoxy-3-phosphocholyl-5-n-hexadecyl-D-ribofuranoside], the IC50 in series [1] is 2.3 µg/mL (≈ 4.28 µM). In addition, the entries for the “Percent inhibition of Tumor growth” value in series [3] (25 mg/kg ip) and in series [3] (50 mg/kg ip) were 37% and 61%, respectively. In addition, the Toxic deaths in series [3] (25 mg/kg ip) was 0/10; in series [3] (50 mg/kg ip), 2/10.

With `CCCCCCCCCCCCCCCCO[C@H]1C[C@@H](OC)O[C@@H]1COP(=O)([O-])OCC[N+](C)(C)C` [drawing 20 (R = MeO, R^1 = H), Methyl 2-deoxy-3-n-hexadecyl-5-phosphocholyl-D-ribofuranoside], in series [1], the IC50 turned out to be 5.2 µg/mL (≈ 9.67 µM).

`CCCCCCCCCCCCCCCCOC[C@H]1OCC[C@@H]1OP(=O)([O-])OCC[N+](C)(C)C` [drawing 19 (R = H, R^1 = H), 1,2-dideoxy-3-phosphocholyl-5-n-hexadecyl-D-ribofuranose]: the IC50 in series [1] came to 3.7 µg/mL (≈ 7.29 µM).

As to `CCCCCCCCCCCCCCCCOC[C@H]1O[C@H](OC)C[C@H]1OP(=O)([O-])OCC[N+](C)(C)C` [drawing 21 (R = MeO, R^1 = H), α-Methyl 2-deoxy-3-phosphocholyl-5-n-hexadecyl-D-xylofuranoside], the IC50 in series [1] was 5.3 µg/mL (≈ 9.86 µM).
